Measured values reported in the supplement of paper PMC10307832.

Experiments:
Motesanib = compound: CC1(C)CNc2cc(NC(=O)c3cccnc3NCc3ccncc3)ccc21 [Motesanib]; assay: relative viability (nuclei count vs DMSO), 5 days (fraction); higher = more cells survive
Summary of the method: (§1)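 A plate was accepted only when its control CV was below 25% and the cells had doubled at least once. Viability is defined from nuclear counts as treated wells divided by vehicle wells, with the median taken across plates. That median covers lung cancer cell lines grown in 1536-well plates, dosed by pinning at five √10-spaced library-drug concentrations, and counted in MetaXpress from 4× Hoechst images after 5 days.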

[1] = compound: C[C@@]1(C(=O)Nc2ccc(F)nc2)CCCN1c1nc(Nc2cc(C3CC3)n[nH]2)c2cccn2n1; assay: as above
Summary of the method: as §1

Cell Line	relative viability (Motesanib; 0.01 µM)	relative viability (Motesanib; 0.03162 µM)	relative viability (Motesanib; 0.1 µM)	relative viability (Motesanib; 0.3162 µM)	relative viability (Motesanib; 1 µM)	relative viability ([1]; 0.04 µM)	relative viability ([1]; 0.1265 µM)	relative viability ([1]; 0.4 µM)	relative viability ([1]; 1.265 µM)
201T	0.982	0.971	1.02	0.987	0.963	0.955	0.833	0.682	0.796
A549	0.951	0.958	1	1.01	1.02	0.869	0.693	0.509	0.589
A-427	0.944	1.01	0.894	1.03	1.06	1.09	0.944	0.889	0.797
ABC-1	0.919	0.938	0.863	1.09	0.97	0.884	0.738	0.51	0.507
BEN	0.902	0.964	0.927	0.998	1.19	1.09	0.959	0.935	0.929
CAL-12T	0.951	0.975	0.967	1.05	0.965	1.03	0.863	0.884	0.664
COR-L23	1.01	0.962	1.03	1.04	1.07	1.13	0.985	0.886	0.774
COR-L 105	1.05	0.875	0.905	0.957	0.997	1.01	0.662	0.781	0.681
Calu-6	1	0.98	1	1.05	0.987	1.11	0.948	0.884	0.844
ChaGo-K-1	0.973	0.931	0.932	0.999	1.04	0.955	0.826	0.899	0.914
EBC-1	1.01	0.927	1.01	1.03	0.954	1.01	0.772	0.769	0.664
EKVX	0.919	1	1.01	0.928	1.08	0.963	0.762	0.733	0.815
EMC-BAC-2	0.964	1.01	0.987	1.05	0.95	0.848	0.766	0.642	0.593
EPLC-272H	0.918	1.04	0.761	1.04	0.976	1.04	0.645	0.744	0.764
H3255	0.905	1.04	0.978	1.05	1.01	1.05	0.954	0.931	0.882
HARA	0.959	1.1	0.909	1.09	0.997	0.815	1.01	0.756	0.723
HCC-15	0.955	0.972	0.896	1.16	1.01	0.85	0.667	0.727	0.764
HCC-44	0.978	0.957	1.02	1.04	0.989	0.99	0.904	0.716	0.737
HCC-78	0.891	0.957	0.957	0.92	1.03	0.968	0.686	0.496	0.44

Cell Line	relative viability (Motesanib; 0.01 µM)	relative viability (Motesanib; 0.03162 µM)	relative viability (Motesanib; 0.1 µM)	relative viability (Motesanib; 0.3162 µM)	relative viability (Motesanib; 1 µM)	relative viability ([1]; 0.04 µM)	relative viability ([1]; 0.1265 µM)	relative viability ([1]; 0.4 µM)	relative viability ([1]; 1.265 µM)
HCC-366	1.04	1.01	0.991	1.04	1.07	1	0.98	1.03	0.753
HCC-827	1.09	1.08	1.06	1.07	1.09	1.02	1.01	0.968	1.07
HOP-62	1.06	1.04	1.12	1.09	1.11	1.03	0.97	0.914	1.08
IA-LM	0.927	1.03	0.957	1.04	0.941	1.05	1	0.863	0.861
LC-2-ad	0.992	0.974	1.01	1.07	0.981	0.89	0.845	0.752	0.625
LCLC-97TM1	0.895	0.961	0.95	1.03	0.999	0.824	0.356	0.225	0.143
LCLC-103H	0.914	0.958	0.974	1.02	1.06	0.896	0.922	0.799	0.885
LK-2	1.05	0.945	0.914	1.05	1.02	0.623	1.06	0.508	0.636
LOU-NH91	0.94	0.982	1.12	0.993	0.995	0.94	0.94	0.894	0.841
LU99A	0.911	1.03	0.905	1.02	0.98	0.72	0.645	0.6	0.381
LXF-289	0.991	0.999	1.02	1.15	1.03	1.03	0.978	0.997	1.03
NCI-H23	1.02	0.915	0.758	1.08	1.04	0.788	0.501	0.523	0.553
NCI-H322M	1.04	0.993	0.988	0.946	0.954	0.853	0.602	0.644	0.728
NCI-H358	0.973	0.948	0.959	1.16	1.2	0.752	0.46	0.237	0.326
NCI-H441	1.02	1.06	0.981	1.08	1.16	0.719	0.549	0.664	0.703
NCI-H460	0.999	0.974	0.981	1.02	1	0.982	1.01	1.01	0.953
NCI-H520	0.931	1.03	0.971	1.05	0.906	0.977	0.915	0.953	0.99
NCI-H522	0.939	1.01	1.06	1.06	1.07	0.925	0.836	0.754	0.878
